Key:
[1] = system: TTR; assay: TTR editing in HUH7 cells transfected with Spy Cas9 mRNA and dgRNAs (Table 5); format: cell-based, human; details: HUH7 cells co-transfected with Spy Cas9 mRNA (SEQ ID NO:2) and dgRNAs
Procedure: HUH7 cell line. The human hepatocellular carcinoma cell line HUH7 (Japanese Collection of Research Bioresources Cell Bank, Cat. JCRB0403) was cultured in DMEM media supplemented with 10% fetal bovine serum. Cells were plated on at a density of 15,000 cells/well in a 96-well plate 20 hours prior to transfection. Cells were transfected with Lipofectamine MessengerMAX (ThermoFisher, Cat. LMRNA003) per the manufacturer's protocol. Cells were sequentially transfected with a lipoplex containing Spy Cas9 mRNA (100 ng), MessengerMAX (0.3 μL/well) and OptiMem followed by a separate lipoplex containing individual crRNA (25 nM), tracer RNA (25 nM), MessengerMAX (0.3 μL/well) and OptiMem.
(§1) Transfected cells were harvested post-transfection at 24, 48, or 72 hours. The genomic DNA was extracted from each well of a 96-well plate using 50 μL/well BuccalAmp DNA Extraction solution (Epicentre, Cat. QE09050) per manufacturer's protocol. All DNA samples were subjected to PCR and subsequent NGS analyses, as described herein.
(§2) To quantitatively determine the efficiency of editing at the target location in the genome, sequencing was utilized to identify the presence of insertions and deletions introduced by gene editing.
(§3) Primers were designed around the target site within the gene of interest (e.g. TTR), and the genomic area of interest was amplified.
(§4) Additional PCR was performed per the manufacturer's protocols (Illumina) to add chemistry for sequencing. The amplicons were sequenced on an Illumina MiSeq instrument. The reads were aligned to a reference genome (e.g., the human reference genome (hg38), the cynomologus reference genome (mf5), the rat reference genome (rn6), or the mouse reference genome (mm10)) after eliminating those having low quality scores. The resulting files containing the reads were mapped to the reference genome (BAM files), where reads that overlapped the target region of interest were selected and the number of wild type reads versus the number of reads which contain an insertion, substitution, or deletion was calculated.
(§5) The editing percentage (e.g., the “editing efficiency” or “percent editing” or “indel frequency”) is defined as the total number of sequence reads with insertions/deletions (“indels”) or substitutions over the total number of sequence reads, including wild type.
(§6) Guides in dgRNA format targeting human TTR and the cynomologus matched sequences were delivered to HEK293 Cas9, HUH7 and HepG2 cell lines, as well as primary human hepatocytes and primary cynomolgus monkey hepatocytes as described in Example 1. Percent editing was determined for crRNAs comprising each guide sequence across each cell type and the guide sequences were then rank ordered based on highest % edit. The screening data for the guide sequences in Table 1 in all five cell lines are listed below (Table 4 through 11).

[2] = system: TTR; assay: TTR editing in primary human hepatocytes transfected with Spy Cas9 protein (RNP) loaded with dgRNAs (Table 8); format: cell-based; details: dgRNA transfected with Spy Cas9 protein (RNP)
Procedure: (§7) Primary liver hepatocytes. Primary human liver hepatocytes (PHH) and primary cynomolgus liver hepatocytes (PCH) (Gibco) were cultured per the manufacturer's protocol (Invitrogen, protocol 11.28.2012). In brief, the cells were thawed and resuspended in hepatocyte thawing medium with supplements (Gibco, Cat. CM7000) followed by centrifugation at 100 g for 10 minutes for human and 80 g for 4 minutes for cyno. The supernatant was discarded and the pelleted cells resuspended in hepatocyte plating medium plus supplement pack (Invitrogen, Cat. A1217601 and CM3000). Cells were counted and plated on Bio-coat collagen I coated 96-well plates (ThermoFisher, Cat. 877272) at a density of 33,000 cells/well for human or 60,000 cells/well for cyno (or 65,000 cells/well when assaying effects on TTR protein, described further below). Plated cells were allowed to settle and adhere for 6 or 24 hours in a tissue culture incubator at 37° C. and 5% CO2 atmosphere. After incubation cells were checked for monolayer formation and media was replaced with hepatocyte culture medium with serum-free supplement pack (Invitrogen, Cat. A1217601 and CM4000).
(§8) […] formation was performed prior to electroporation or transfection of Spy Cas9 protein loaded with guide RNAs (RNPs) onto cells. For dual guide (dgRNAs), individual crRNA and trRNA was pre-annealed by mixing equivalent amounts of reagent and incubating at 95° C. for 2 min and cooling to room temperature. Single guide (sgRNAs) were boiled at 95° C. for 2 min and cooling to room temperature. The boiled dgRNA or sgRNA was incubated with Spy Cas9 protein in Optimem for 10 minutes at room temperature to form a ribonucleoprotein (RNP) complex.
For RNP lipoplex transfections, cells were transfected with Lipofectamine RNAiMAX (ThermoFisher, Cat. 13778150) per the manufacturer's protocol. Cells were transfected with an RNP containing Spy Cas9 (10 nM), individual guide (10 nM), tracer RNA (10 nM), Lipofectamine RNAiMAX (1.0 μL/well) and OptiMem. RNP formation was performed as described above.
as §1, §2, §3, §4, §5
Guides in dgRNA format targeting human TTR and the cynomologus matched sequences were delivered to HEK293 Cas9, HUH7 and HepG2 cell lines, as well as primary human hepatocytes and primary cynomolgus monkey hepatocytes as described in Example 1. […]

[3] = system: TTR; assay: TTR editing in primary human hepatocytes transfected with Spy Cas9 mRNA and dgRNAs (Table 9); format: cell-based; details: dgRNA co-transfected with Spy Cas9 mRNA (SEQ ID NO:2)
Procedure: as §7
Lipofectamine RNAiMax (ThermoFisher, Cat. 13778150) based transfections were conducted as per the manufacturer's protocol. Cells were sequentially transfected with a lipoplex containing Spy Cas9 mRNA (100 ng), Lipofectamine RNAiMax (0.4 μL/well) and OptiMem followed by a separate lipoplex containing crRNA (25 nM) and tracer RNA (25 nM) or sgRNA (25 nM), Lipofectamine RNAiMax (0.4 μL/well) and OptiMem.
as §1, §2, §3, §4, §5, §6

[4] = system: TTR; assay: TTR editing in primary human hepatocytes electroporated with Spy Cas9 protein loaded with dgRNAs (Table 7); format: cell-based; details: dgRNA electroporated with Spy Cas9 protein (RNP)
Procedure: as §7, §8
For RNP electroporation into primary human and cyno hepatocytes, the cells are thawed and resuspended in Lonza electroporation Primary Cell P3 buffer at a concentration of 2500 cells per μL for human hepatocytes and 3500 cells per μL for cyno hepatocytes. A volume of 20 μL of resuspended cells and 5 μL of RNP are mixed together per guide. 20 μL of the mixture is placed into a Lonza electroporation plate. The cells were electroporated using the Lonza nucleofector with the preset protocol EX-147. Post electroporation, the cells are transferred into a Biocoat plate containing pre-warmed maintenance media and placed in a tissue culture incubator at 37° C. and 5% CO2.
as §1, §2, §3, §4
The editing percentage (e.g., the “editing efficiency” or “percent editing” or “indel frequency”) is defined as the total number of sequence reads with insertions/deletions (“indels”) or substitutions over the total number of sequence reads, including wild type. […]

[5] = system: TTR; assay: TTR editing in HEK293_Cas9 cells transfected with dgRNAs (Table 4); format: cell-based, human; details: HEK293_Cas9 cells (constitutively express Spy Cas9) transfected with dgRNAs
Procedure: HEK293 Cas9 cell line. The human embryonic kidney adenocarcinoma cell line HEK293 constitutively expressing Spy Cas9 (“HEK293_Cas9”) was cultured in DMEM media supplemented with 10% fetal bovine serum and 500 μg/ml G418. Cells were plated at a density of 10,000 cells/well in a 96-well plate 24 hours prior to transfection. Cells were transfected with Lipofectamine RNAiMAX (ThermoFisher, Cat. 13778150) per the manufacturer's protocol. Cells were transfected with a lipoplex containing individual crRNA (25 nM), trRNA (25 nM), Lipofectamine RNAiMAX (0.3 μL/well) and OptiMem.
as §1, §2, §3, §4, §5, §6

[6] = system: TTR; assay: TTR editing in HepG2 cells transfected with Spy Cas9 mRNA and dgRNAs (Table 6); format: cell-based, human; details: HepG2 cells co-transfected with Spy Cas9 mRNA (SEQ ID NO:2) and dgRNAs
Procedure: HepG2 cell line. The human hepatocellular carcinoma cell line HepG2 (American Type Culture Collection, Cat. HB-8065) was cultured in DMEM media supplemented with 10% fetal bovine serum. Cells were counted and plated on Bio-coat collagen I coated 96-well plates (ThermoFisher, Cat. 877272) at a density of 10,000 cells/well in a 96-well plate 24 hours prior to transfection. Cells were transfected with Lipofectamine 2000 (ThermoFisher, Cat. 11668019) per the manufacturer's protocol. Cells were sequentially transfected with lipoplex containing Spy Cas9 mRNA (100 ng), Lipofectamine 2000 (0.2 μL/well) and OptiMem followed by a separate lipoplex containing individual crRNA (25 nM), tracer RNA (25 nM), Lipofectamine 2000 (0.2 μL/well) and OptiMem.
as §1, §2, §3, §4, §5, §6

Sequence	Avg % Deletion [1] [%]	Avg % Edit [1] [%]	Avg % Insert [1] [%]	Avg % Deletion [2] [%]	Avg % Edit [2] [%]	Avg % Insert [2] [%]	Avg % Deletion [3] [%]	Avg % Edit [3] [%]	Avg % Insert [3] [%]	Avg % Deletion [4] [%]	Avg % Edit [4] [%]	Avg % Insert [4] [%]	Avg % Deletion [5] [%]	Avg % Edit [5] [%]	Avg % Insert [5] [%]	Avg % Deletion [6] [%]	Avg % Edit [6] [%]	Avg % Insert [6] [%]
GUAUUCACAGCCAACGACUC (tested as dual guide RNA, chemistry not given here) [CR003373]	25.12	27.29	3.31	0.19	3.64	3.44	0.37	1.40	1.00	0.07	0.87	0.83	12.25	13.55	1.31	1.77	17.69	15.92
GGCGGCAAUGGUGUAGCGGC (tested as dual guide RNA, chemistry not given here) [CR003378]	32.27	40.73	9.73	0.42	8.66	8.24	1.37	9.80	8.50	0.73	4.60	3.87	16.48	20.97	4.49	1.34	8.16	6.82
AAUGGUGUAGCGGCGGGGGC (tested as dual guide RNA, chemistry not given here) [CR003375]	2.25	2.38	0.26	0.11	5.04	4.93	0.03	1.27	1.23	0.07	1.33	1.27	10.85	11.63	0.78	0.10	2.06	1.96
CGGCAAUGGUGUAGCGGCGG (tested as dual guide RNA, chemistry not given here) [CR003376]	18.55	19.42	1.37	0.14	5.00	4.86	0.13	2.83	2.73	0.03	1.90	1.87	26.81	28.16	1.35	0.24	14.41	14.16
